Test results published in publication PMC10733463, “Berberine-microbiota interplay: orchestrating gut health through modulation of the gut microbiota and metabolic transformation into bioactive metabolites” (Frontiers in Pharmacology, 2023).

Experiments:
[1] = test system: Anaerostipes butyraticus (35–7); settings: 35-7, chicken, 10 µg/mL, pH 6
Protocol: Six strains were tested for their ability to convert berberine into berberine-demethylated metabolites. […] Strains were sub-cultured overnight in M2GSC medium pH 6. The next day, caecal content from a 3-week-old broiler chicken was sampled in anaerobic conditions and 1:1,000 diluted in M2GSC medium pH 6 containing 10 μg/mL berberine. Caecal mixtures were enriched with 1:100 diluted overnight cultures of single bacteria, or with M2GSC (control), and incubated in a 24-well plate, for 48 h. […] Samples were collected and processed as described before. Each bacterial strain was tested in triplicate at 37°C–40°C under anaerobic conditions.
The UPLC instrument consisted of an Acquity H-Class Quaternary Solvent Manager and an Acquity FTN Sample Manager (Waters, Berchem, Belgium). For chromatographic separation, an Acquity UPLC® HSS T3 column (1.8 µm, 100 mm × 2.1 mm i.d.) was used, protected by a precolumn of the same type (VanGuardTM, 5 mm × 2.1 mm i.d.), both from Waters. […] The column temperature was maintained at 25°C. The autosampler temperature was set at 10°C. The UPLC effluent was sent from 1.2 min to 9.5 min by use of a divert valve to a Xevo TQ-S® triple quadrupole mass spectrometer from Water, equipped with an ESI ion source operating in the positive ionization mode from. The UPLC-MS/MS analysis was run under control of MassLynx software (v4.1), which was used for subsequent data processing as well. For the injection of 1/5 diluted intestinal content samples (see section Preparation of intestinal content samples (ileum and caecum)), the divert valve was used in addition from 7.1 min to 8.4 min to deviate the high amount of berberine and associated IS berberine-d6 eluting in that time window from the UPLC column directly to the waste, rather than to the MS detector to avoid oversaturation of the instrument, influencing subsequent sample extract injections at well. Operating conditions for the ESI source used in the positive ionization mode were optimized by direct infusion of all individual components in combination with the mobile phase at 50% A/50% B delivered at a flow rate of 0.3 mL/min. The following tune parameters were used for detection of all components: capillary voltage, 3 kV, cone voltage, 10 V, source offset, 50 V, source temperature, 150°C, desolvation temperature, 500°C, desolvation gas flow, 800 L/h, cone gas flow, 150 L/h, collision gas flow, 0.2 mL/min, ion energy 1 and 2, 0.5, LM 1 and LM 2 resolution, 3, HM 1 and HM 2 resolution, 15. Components were detected in MS/MS mode using component specific MRM (Multiple Reaction Monitoring) transitions (Supplementary Table S1). Since a commercial standard of thalifendine was not available, MS/MS detection parameters and calibration of berberrubine were used for the detection and quantification of thalifendine, which is a reasonable approach, since both compounds are isomers. No commercial reference standards were available for phase II metabolites, therefore “calculated” MRM transitions were defined as follows: [M + -Gluc] > M+ for glucuronide forms and [M + -SO3] > M+ for sulfate forms, where the loss of glucuronic acid or sulfate corresponded to a mass shift of 176 Da or 80 Da respectively. Phase II metabolites were quantified relatively using the berberine calibration curve ([Wang et al., 2017a]; [Kwon et al., 2020]).

[2] = UPLC-MS/MS quantification of berberine and metabolites in ileal and caecal content; format: in vivo, Ross 308 broiler chickens; settings: 21 days
Text: The study was undertaken following the guidelines of the ethics committee of the Faculty of Veterinary Medicine and Bioscience Engineering, Ghent University, in accordance with the EU Directive 2010/63/EU. One-day-old Ross 308 male broilers were obtained from a local hatchery and housed in pens on wood shavings. They were allotted into 4 groups, with three replicate pens per group each housing 8 chickens. The animals were not vaccinated. Water and commercial starter feed (day 1–12, FARM 1 Mash, Country’s Best, Versele Laga, Deinze, Belgium) or grower (day 13–21, FARM 2 mash, Country’s Best, Versele Laga, Deinze, Belgium) were provided ad libitum. The control group received the standard non-supplemented diets, whereas the chickens in other groups were fed the same feed supplemented with 0.1, 0.5 or 1 g berberine/kg feed throughout the whole trial period. At day 21, 4 birds per pen were weighted then euthanized by sodium pentobarbital injection for sampling. Individual jejunal, ileal, caecal and colonic contents were stored at −20°C for microbiota composition analysis (16S rRNA gene sequencing). Additionally, ileal and caecal content samples were collected and stored at −20°C for berberine and berberine-derived metabolite quantification. Duodenal tissue samples were collected and fixed in 4% phosphate buffered formaldehyde for histological analysis. Blood samples were collected in heparin tubes and centrifuged at 524 g for 10 min to recover the plasma fraction, which was further mixed with 17 mg/mL L-ascorbic acid for dihydroberberine stabilization, and stored at −20°C for berberine and berberine-derived metabolite quantification.
The column temperature was maintained at 25°C. The autosampler temperature was set at 10°C.
250 mg of ileal or caecal content was weighed in a 15 mL polypropylene centrifuge tube and 250 µL of ascorbic acid 170 mg/mL solution was added for stabilization of dihydroberberine, followed by brief vortexing. Subsequently, 25 µL of an internal standard solution containing 250 μg/mL of berberine-d6 and 2.5 μg/mL tetrahydropalmatine were added, followed by brief vortexing. A 2.5 mL volume of extraction solvent was then added, consisting of a 1% (v/v) formic acid solution in methanol. The sample was put on a rotary shaker set at 80 rpm for 20 min, followed by centrifugation (3,720 g, 10 min, 4°C). The supernatant was then diluted, by a factor 5 for measurement of low abundance components, and by a factor 2,000 for measurement of high abundance components. The 1/5 diluted sample extract was prepared directly in an autosampler vial as follows: 200 µL sample extract were mixed with 100 µL ascorbic acid 170 mg/mL solution and 700 µL Milli-Q water. For the 1/2,000 diluted sample extract, an intermediate 1/100 sample dilution was prepared by combining 500 µL sample extract and 49.5 mL of Milli-Q water. 50 μL was then transferred in an autosampler vial followed by the addition of 950 µL of Milli-Q water. For both dilutions, a 5 µL sample aliquot was injected onto the UPLC-MS/MS apparatus. Quantification was based on the ratio of the analyte peak area compared to the peak area of the internal standard tetrahydropalmatine for 1/5 diluted sample extracts, and on the ratio of the analyte peak area compared to the peak area of the internal standard berberine-d6 for 1/2,000 diluted sample extracts.
Calibration standards and quality control samples were prepared as follows: 250 mg of blank ileal or caecal content were supplemented with 250 µL of ascorbic acid 170 mg/mL solution, 25 µL mixed solution of berberine and metabolites (with the exception of dihydroberberine) at different levels, 25 µL of dihydroberberine solution, stabilized with 17 mg/mL ascorbic acid, at different levels and 25 µL of an internal standard solution containing 0.625 μg/mL of berberine-d6 and 2.5 μg/mL tetrahydropalmatine. The calibration curve was in the 62.5–5,000 ng/g range, and included 62.5, 125, 250, 500, 1,000, 2,500, and 5,000 ng/g levels. […]

Row | Log2(fold change) of metabolite response at 48 h, culture with bacteria over control (berberine-medium + microbiota) [1] | Ratio caecum / ileum (concentration) ([2]; 0.1 g berberine/kg feed) | Ratio caecum / ileum (concentration) ([2]; 0.5 g berberine/kg feed) | Ratio caecum / ileum (concentration) ([2]; 1 g berberine/kg feed) | SMILES
1 | 0.03 | 21.43 | 29.98 | 63.80 | COc1ccc2cc3[n+](cc2c1O)CCc1cc2c(cc1-3)OCO2 [Berberrubine, berberrubine chloride]
2 | -0.05 | 0.31 | 0.49 | 0.72 | COc1cc2c(cc1O)CC[n+]1cc3c(OC)c(OC)ccc3cc1-2 [Jatrorrhizine, Jatrorrhizine chloride]

Row | SMILES | Log2(fold change) of metabolite response at 48 h, culture with bacteria over control (berberine-medium + microbiota) [1] | Ratio caecum / ileum (concentration) ([2]; 0.1 g berberine/kg feed) | Ratio caecum / ileum (concentration) ([2]; 0.5 g berberine/kg feed) | Ratio caecum / ileum (concentration) ([2]; 1 g berberine/kg feed)
3 | COc1ccc2cc3[n+](cc2c1OC)CCc1cc2c(cc1-3)OCO2 [Berberine, Berberine chloride] | – | 0.07 | 0.14 | 0.22
